Measurements from BindingDB's records for doi:10.1021/np049624z (Harvard Medical School, 2005).

Molecular target: Forkhead box protein O1 (Homo sapiens, UniProt Q12778)
Experiment: Inhibition of FOXO1a nuclear export in PTEN-deficient cells

Forkhead box protein O1, sequence (Q12778 whole entry): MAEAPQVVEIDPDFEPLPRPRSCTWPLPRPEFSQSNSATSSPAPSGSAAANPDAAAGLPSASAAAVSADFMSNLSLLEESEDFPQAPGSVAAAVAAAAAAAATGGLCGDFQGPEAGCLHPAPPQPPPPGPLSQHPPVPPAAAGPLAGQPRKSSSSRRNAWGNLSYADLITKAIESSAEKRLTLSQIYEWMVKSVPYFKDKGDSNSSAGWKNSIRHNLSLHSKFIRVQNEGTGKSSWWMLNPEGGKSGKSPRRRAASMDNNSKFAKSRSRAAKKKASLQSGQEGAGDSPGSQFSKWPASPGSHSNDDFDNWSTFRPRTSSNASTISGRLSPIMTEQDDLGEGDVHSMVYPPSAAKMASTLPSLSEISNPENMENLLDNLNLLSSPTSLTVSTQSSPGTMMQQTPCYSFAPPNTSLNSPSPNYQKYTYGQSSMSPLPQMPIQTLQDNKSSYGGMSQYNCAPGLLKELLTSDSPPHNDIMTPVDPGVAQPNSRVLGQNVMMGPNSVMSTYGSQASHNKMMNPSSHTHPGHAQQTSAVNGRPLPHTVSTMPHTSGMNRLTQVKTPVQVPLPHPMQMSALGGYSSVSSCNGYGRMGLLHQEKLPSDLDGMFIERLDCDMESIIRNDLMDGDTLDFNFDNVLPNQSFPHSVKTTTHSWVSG

IC50 | Structure (SMILES)
5 µM | CN(C)CCCOc1c(Br)cc(/C=C/C(=O)NCCCOc2c(Br)cc(CCN(C)C)cc2Br)cc1Br [psammaplysene A]
20 µM | CNCCCOc1c(Br)cc(/C=C/C(=O)NCCCOc2c(Br)cc(CCN(C)C)cc2Br)cc1Br [psammaplysene B]
